Measured values as given in PubChem BioAssay (NCI).
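The concentration for 50% growth inhibition is given as GI50. TGI: total growth inhibition.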

Legend:
Experiment in all cases: NCI tumour cell line growth inhibition, 384-well format
HCT-15 colon = tested on: HCT-15 colon
HT29 colon = tested on: HT29 colon
U251 glioblastoma = tested on: U251 glioblastoma
NCI-H460 NSCLC = tested on: NCI-H460 NSCLC
HL-60(TB) leukemia = tested on: HL-60(TB) leukemia
OVCAR-8 ovarian = tested on: OVCAR-8 ovarian
SK-OV-3 ovarian = tested on: SK-OV-3 ovarian
SNB-75 CNS = tested on: SNB-75 CNS
TK-10 renal = tested on: TK-10 renal
HOP-92 NSCLC = tested on: HOP-92 NSCLC
RPMI-8226 leukemia = tested on: RPMI-8226 leukemia
OVCAR-3 ovarian = tested on: OVCAR-3 ovarian
SK-MEL-28 melanoma = tested on: SK-MEL-28 melanoma
SN12C renal = tested on: SN12C renal
COLO 205 colon = tested on: COLO 205 colon
HCC-2998 colon = tested on: HCC-2998 colon
MDA-MB-435 melanoma = tested on: MDA-MB-435 melanoma
PC-3 prostate = tested on: PC-3 prostate
SNB-19 CNS = tested on: SNB-19 CNS
BT-549 breast = tested on: BT-549 breast
OVCAR-4 ovarian = tested on: OVCAR-4 ovarian
HCT-116 colon = tested on: HCT-116 colon
CAKI-1 renal = tested on: CAKI-1 renal
SK-MEL-2 melanoma = tested on: SK-MEL-2 melanoma
KM12 colon = tested on: KM12 colon
MDA-MB-231 breast = tested on: MDA-MB-231 breast
SF-539 CNS = tested on: SF-539 CNS
NCI-H522 lung = tested on: NCI-H522 lung
OVCAR-5 ovarian = tested on: OVCAR-5 ovarian
HS 578T breast = tested on: HS 578T breast
UACC-62 melanoma = tested on: UACC-62 melanoma
RXF 393 renal = tested on: RXF 393 renal
T-47D breast = tested on: T-47D breast
SF-268 CNS = tested on: SF-268 CNS
MALME-3M melanoma = tested on: MALME-3M melanoma
MDA-MB-468 breast = tested on: MDA-MB-468 breast
A549 NSCLC = tested on: A549 NSCLC
UO-31 renal = tested on: UO-31 renal
NCI/ADR-RES ovarian = tested on: NCI/ADR-RES ovarian
UACC-257 melanoma = tested on: UACC-257 melanoma
786-0 renal = tested on: 786-0 renal
SR leukemia = tested on: SR leukemia
MCF7 breast = tested on: MCF7 breast
NCI-H322M lung = tested on: NCI-H322M lung
SW-620 colon = tested on: SW-620 colon
ACHN renal = tested on: ACHN renal
M14 melanoma = tested on: M14 melanoma

Q: How did the GI50 (HCT-15 colon) turn out when `Cc1cc([C@H](C)Nc2nccc(N3C(=O)OC[C@@H]3[C@H](C)F)n2)ncc1-c1ccnc(C(F)(F)F)c1` was run?
A: The GI50 was 33.9 µM.

Q: And the TGI (HCT-15 colon)?
A: The TGI was over 100 µM.

Q: And the GI50 (HT29 colon)?
A: The GI50 was 31.7 µM.

Q: And the TGI (HT29 colon)?
A: The TGI was over 100 µM.

Q: What about the GI50 (U251 glioblastoma) of the same compound?
A: The GI50 was 36.4 µM.

Q: What about the TGI (U251 glioblastoma) of the same compound?
A: Its TGI is over 100 µM.

Q: What about the GI50 (NCI-H460 NSCLC) of the same compound?
A: The GI50 was 37.1 µM.

Q: What about the TGI (NCI-H460 NSCLC) of the same compound?
A: Its TGI is over 100 µM.

Q: And the GI50 (HL-60(TB) leukemia)?
A: The GI50 was 17.5 µM.

Q: What about the TGI (HL-60(TB) leukemia) of the same compound?
A: The TGI was 31.3 µM.

Q: And the GI50 (OVCAR-8 ovarian)?
A: The GI50 was 31.6 µM.

Q: And the TGI (OVCAR-8 ovarian)?
A: The TGI was over 100 µM.

Q: And the GI50 (SK-OV-3 ovarian)?
A: The GI50 was 41.7 µM.

Q: What about the TGI (SK-OV-3 ovarian) of the same compound?
A: Its TGI is over 100 µM.

Q: And the GI50 (SNB-75 CNS)?
A: The GI50 was 29.7 µM.

Q: And the TGI (SNB-75 CNS)?
A: Its TGI is over 100 µM.

Q: And the GI50 (TK-10 renal)?
A: Its GI50 is 27.8 µM.

Q: And the TGI (TK-10 renal)?
A: The TGI was over 100 µM.

Q: And the GI50 (HOP-92 NSCLC)?
A: The GI50 was 29.2 µM.

Q: And the TGI (HOP-92 NSCLC)?
A: The TGI was over 100 µM.

Q: And the GI50 (RPMI-8226 leukemia)?
A: The GI50 was 7.2 µM.

Q: And the TGI (RPMI-8226 leukemia)?
A: The TGI was 21.2 µM.

Q: And the GI50 (OVCAR-3 ovarian)?
A: Its GI50 is 22.2 µM.

Q: And the TGI (OVCAR-3 ovarian)?
A: The TGI was 72.3 µM.

Q: And the GI50 (SK-MEL-28 melanoma)?
A: Its GI50 is over 100 µM.

Q: And the TGI (SK-MEL-28 melanoma)?
A: The TGI was over 100 µM.

Q: And the GI50 (SN12C renal)?
A: Its GI50 is 45.5 µM.

Q: What about the TGI (SN12C renal) of the same compound?
A: Its TGI is over 100 µM.

Q: And the GI50 (COLO 205 colon)?
A: The GI50 was 64.1 µM.

Q: And the TGI (COLO 205 colon)?
A: The TGI was over 100 µM.

Q: And the GI50 (HCC-2998 colon)?
A: The GI50 was 24.6 µM.

Q: What about the TGI (HCC-2998 colon) of the same compound?
A: Its TGI is over 100 µM.

Q: What about the GI50 (MDA-MB-435 melanoma) of the same compound?
A: The GI50 was 52.7 µM.

Q: And the TGI (MDA-MB-435 melanoma)?
A: Its TGI is over 100 µM.

Q: What about the GI50 (PC-3 prostate) of the same compound?
A: The GI50 was 27.7 µM.

Q: And the TGI (PC-3 prostate)?
A: Its TGI is over 100 µM.

Q: And the GI50 (SNB-19 CNS)?
A: Its GI50 is 42.7 µM.

Q: And the TGI (SNB-19 CNS)?
A: Its TGI is over 100 µM.

Q: And the GI50 (BT-549 breast)?
A: The GI50 was 28 µM.

Q: And the TGI (BT-549 breast)?
A: Its TGI is over 100 µM.

Q: What about the GI50 (OVCAR-4 ovarian) of the same compound?
A: The GI50 was 29.6 µM.

Q: What about the TGI (OVCAR-4 ovarian) of the same compound?
A: The TGI was over 100 µM.

Q: What about the GI50 (HCT-116 colon) of the same compound?
A: Its GI50 is 21 µM.

Q: What about the TGI (HCT-116 colon) of the same compound?
A: The TGI was 96.7 µM.

Q: And the GI50 (CAKI-1 renal)?
A: The GI50 was 34.4 µM.

Q: What about the TGI (CAKI-1 renal) of the same compound?
A: The TGI was over 100 µM.

Q: What about the GI50 (SK-MEL-2 melanoma) of the same compound?
A: The GI50 was 82.9 µM.

Q: What about the TGI (SK-MEL-2 melanoma) of the same compound?
A: The TGI was over 100 µM.

Q: And the GI50 (KM12 colon)?
A: Its GI50 is 40.1 µM.

Q: And the TGI (KM12 colon)?
A: Its TGI is over 100 µM.

Q: What about the GI50 (MDA-MB-231 breast) of the same compound?
A: The GI50 was 46.4 µM.

Q: And the TGI (MDA-MB-231 breast)?
A: The TGI was over 100 µM.

Q: And the GI50 (SF-539 CNS)?
A: Its GI50 is 96.3 µM.

Q: What about the TGI (SF-539 CNS) of the same compound?
A: The TGI was over 100 µM.

Q: What about the GI50 (NCI-H522 lung) of the same compound?
A: Its GI50 is 13.5 µM.

Q: And the TGI (NCI-H522 lung)?
A: The TGI was 58.7 µM.

Q: And the GI50 (OVCAR-5 ovarian)?
A: The GI50 was 53.9 µM.

Q: And the TGI (OVCAR-5 ovarian)?
A: The TGI was over 100 µM.

Q: What about the GI50 (HS 578T breast) of the same compound?
A: Its GI50 is 16.1 µM.

Q: What about the TGI (HS 578T breast) of the same compound?
A: Its TGI is over 100 µM.

Q: What about the GI50 (UACC-62 melanoma) of the same compound?
A: The GI50 was 52.2 µM.

Q: What about the TGI (UACC-62 melanoma) of the same compound?
A: Its TGI is over 100 µM.

Q: What about the GI50 (RXF 393 renal) of the same compound?
A: The GI50 was 15.7 µM.

Q: And the TGI (RXF 393 renal)?
A: The TGI was 76.5 µM.

Q: What about the GI50 (T-47D breast) of the same compound?
A: Its GI50 is 5.13 µM.

Q: What about the TGI (T-47D breast) of the same compound?
A: Its TGI is over 100 µM.

Q: What about the GI50 (SF-268 CNS) of the same compound?
A: Its GI50 is 68.6 µM.

Q: And the TGI (SF-268 CNS)?
A: The TGI was over 100 µM.

Q: What about the GI50 (MALME-3M melanoma) of the same compound?
A: The GI50 was 28.3 µM.

Q: And the TGI (MALME-3M melanoma)?
A: Its TGI is over 100 µM.

Q: What about the GI50 (MDA-MB-468 breast) of the same compound?
A: Its GI50 is 4.43 µM.

Q: What about the TGI (MDA-MB-468 breast) of the same compound?
A: The TGI was 24.5 µM.

Q: And the GI50 (A549 NSCLC)?
A: The GI50 was 41.1 µM.

Q: And the TGI (A549 NSCLC)?
A: The TGI was over 100 µM.

Q: And the GI50 (UO-31 renal)?
A: Its GI50 is 18.8 µM.

Q: What about the TGI (UO-31 renal) of the same compound?
A: Its TGI is over 100 µM.

Q: And the GI50 (NCI/ADR-RES ovarian)?
A: Its GI50 is 16.2 µM.

Q: And the TGI (NCI/ADR-RES ovarian)?
A: The TGI was 94.4 µM.

Q: And the GI50 (UACC-257 melanoma)?
A: Its GI50 is 16.6 µM.

Q: And the TGI (UACC-257 melanoma)?
A: Its TGI is 51.1 µM.

Q: And the GI50 (786-0 renal)?
A: The GI50 was 31.3 µM.

Q: What about the TGI (786-0 renal) of the same compound?
A: The TGI was over 100 µM.

Q: And the GI50 (SR leukemia)?
A: The GI50 was 11.1 µM.

Q: What about the TGI (SR leukemia) of the same compound?
A: The TGI was 25.4 µM.

Q: And the GI50 (MCF7 breast)?
A: The GI50 was 25.8 µM.

Q: And the TGI (MCF7 breast)?
A: Its TGI is over 100 µM.

Q: And the GI50 (NCI-H322M lung)?
A: The GI50 was 41.5 µM.

Q: And the TGI (NCI-H322M lung)?
A: The TGI was over 100 µM.

Q: What about the GI50 (SW-620 colon) of the same compound?
A: Its GI50 is 61 µM.

Q: What about the TGI (SW-620 colon) of the same compound?
A: The TGI was over 100 µM.

Q: What about the GI50 (ACHN renal) of the same compound?
A: The GI50 was 40.2 µM.

Q: What about the TGI (ACHN renal) of the same compound?
A: The TGI was over 100 µM.

Q: What about the GI50 (M14 melanoma) of the same compound?
A: Its GI50 is 86.2 µM.

Q: And the TGI (M14 melanoma)?
A: The TGI was over 100 µM.
